Reference: patent US10174029B2, “Pyrimidine-2,4-diamine derivatives for treatment of cancer” (THOMAS HELLEDAYS STIFTELSE FOR MEDICINSK FORSKNING, priority 2012, dated 2019)

Target: MTH1 (Homo sapiens, UniProt P36639)
Experiment: MTH1 enzymatic assay and IC50 value determination (malachite green)
Format: biochemical
Conditions: MTH1 4.8 nM, dGTP 100 μM, 15 minutes at 22° C.; group: between 2 μM and 10 μM
In short: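 Malachite green detection of Pi after coupling dGTP hydrolysis to excess E. coli pyrophosphatase; 4.8 nM MTH1, 100 μM dGTP in Tris-acetate buffer with Mg2+ and DTT, 1% DMSO, 15 min at 22 °C. 12-point 1:3 compound series; absorbance at 630 nm; IC50 by four-parameter nonlinear regression.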

Row | IC50 | SMILES
1 | 2000 to 10000 nM | CC(C)(C)Nc1cc(-c2cccc(C(F)(F)F)c2)nc(N)n1 [Example 20, 4-N-tert-butyl-6-[3-(trifluoromethyl)phenyl]pyrimidine-2,4-diamine]
2 | 2000 to 10000 nM | Nc1nc(NCCN2CCOCC2)cc(-c2ccccc2)n1 [Example 12, 4-N-[2-(morpholin-4-yl)ethyl]-6-phenylpyrimidine-2,4-diamine]
3 | 2000 to 10000 nM | Cc1cccc(-c2cc(NCC(C)(C)C)nc(N)n2)c1C [Example 181, 6-(2,3-dimethylphenyl)-4-N-(2,2-dimethylpropyl)pyrimidine-2,4-diamine]
4 | 2000 to 10000 nM | CC(C)(C)CNc1cc(-c2cccc(Cl)c2Cl)nc(N)n1 [Example 180, 6-(2,3-dichlorophenyl)-4-N-(2,2-dimethylpropyl)pyrimidine-2,4-diamine]
5 | 2000 to 10000 nM | CCCNc1cc(-c2ccc(S(C)(=O)=O)cc2)nc(N)n1 [Example 5, 6-(4-methanesulfonylphenyl)-4-N-propylpyrimidine-2,4-diamine]

Same assay, conditions: MTH1 4.8 nM, dGTP 100 μM, 15 minutes at 22° C.; group: less than 200 nM

Row | SMILES | IC50
6 | Cc1ccc(Cl)cc1-c1cc(NC2CC2)nc(N)n1 [Example 219, 6-(5-chloro-2-methylphenyl)-4-N-cyclopropylpyrimidine-2,4-diamine] | < 200 nM
7 | Cc1cccc(-c2cc(NCCCNS(=O)(=O)c3c(C)nn(C)c3Cl)nc(N)n2)c1C [Example 389, N-(3-{[2-Amino-6-(2,3-dimethylphenyl)pyrimidin-4-yl]amino}propyl)-5-chloro-1,3-dimethyl-1H-pyrazole-4-sulfonamide] | < 200 nM
8 | Nc1nc(NC2CC2)cc(-c2cccc3ncccc23)n1 [Example 232, 4-N-cyclopropyl-6-(quinolin-5-yl)pyrimidine-2,4-diamine] | < 200 nM
9 | CNc1cc(-c2cc(C(C)(C)C)ccc2OC)nc(N)n1 [Example 197, 6-(5-tert-butyl-2-methoxyphenyl)-4-N-methylpyrimidine-2,4-diamine] | < 200 nM
10 | Cc1cc(-c2cc(NCCc3ccc(S(N)(=O)=O)cc3)nc(N)n2)c(C)cc1F [Example 439, 4-(2-{[2-amino-6-(4-fluoro-2,5-dimethylphenyl)pyrimidin-4-yl]amino}ethyl)benzene-1-sulfonamide] | < 200 nM
11 | Cc1noc(C)c1-c1cc(NCCc2ccc(Cl)cc2)nc(N)n1 [Example 453, 4-N-[2-(4-chlorophenyl)ethyl]-6-(dimethyl-1,2-oxazol-4-yl)pyrimidine-2,4-diamine] | < 200 nM
12 | CN(C)S(=O)(=O)c1ccc(CCNc2cc(-c3cccc(Cl)c3Cl)nc(N)n2)cc1 [Example 415, 4-(2-{[2-amino-6-(2,3-dichlorophenyl)pyrimidin-4-yl]amino}ethyl)-N,N-dimethylbenzene-1-sulfonamide] | < 200 nM
13 | COc1ccc2nc(CCNc3cc(-c4cccc(C)c4C)nc(N)n3)[nH]c2c1 [Example 351, 6-(2,3-Dimethylphenyl)-4-N-[2-(6-methoxy-1H-1,3-benzodiazol-2-yl)ethyl]pyrimidine-2,4-diamine] | < 200 nM
14 | Cc1cccc(-c2cc(NCC(C)c3ccc(Cl)cc3)nc(N)n2)c1C (stereo not shown) [Example 343, 4-N-[2-(4-Chlorophenyl)propyl]-6-(2,3-dimethylphenyl)pyrimidine-2,4-diamine] | < 200 nM

Continued, values first:

Row | IC50 | SMILES
15 | < 200 nM | Cc1cccc(-c2cc(NC3CC3)nc(N)n2)c1Cl [Example 227, 6-(2-chloro-3-methylphenyl)-4-N-cyclopropylpyrimidine-2,4-diamine]
16 | < 200 nM | CNc1cc(-c2cc(F)ccc2C(F)(F)F)nc(N)n1 [Example 208, 6-[5-fluoro-2-(trifluoromethyl)phenyl]-4-N-methylpyrimidine-2,4-diamine]
17 | < 200 nM | Cc1cccc(-c2cc(NCc3ccc(S(N)(=O)=O)cc3)nc(N)n2)c1C [Example 336, 4-({[2-Amino-6-(2,3-dimethylphenyl)pyrimidin-4-yl]amino}methyl)benzene-1-sulfonamide]
18 | < 200 nM | C#CCNc1cc(-c2cccc(C)c2C)nc(N)n1 [Example 386, 6-(2,3-Dimethylphenyl)-4-N-(prop-2-yn-1-yl)pyrimidine-2,4-diamine]
19 | < 200 nM | COc1cccc(NCCNc2cc(-c3cccc(C)c3C)nc(N)n2)c1 [Example 447, 6-(2,3-dimethylphenyl)-4-N-{2-[(3-methoxyphenyl)amino]ethyl}pyrimidine-2,4-diamine]
20 | < 200 nM | CNc1cc(-c2cc3cn[nH]c3cc2C)nc(N)n1 [Example 146, 4-N-methyl-6-(6-methyl-1H-indazol-5-yl)pyrimidine-2,4-diamine]
21 | < 200 nM | CNc1cc(-c2cc(C#N)ccc2C)nc(N)n1 [Example 211, 3-[2-amino-6-(methylamino)pyrimidin-4-yl]-4-methylbenzonitrile]
22 | < 200 nM | CNc1cc(-c2cccc(C#N)c2)nc(N)n1 [Example 40, 3-[2-amino-6-(methylamino)pyrimidin-4-yl]benzonitrile]
23 | < 200 nM | CNc1cc(-c2cccc3ncccc23)nc(N)n1 [Example 52, 4-N-methyl-6-(quinolin-5-yl)pyrimidine-2,4-diamine]
24 | < 200 nM | CNc1cc(-c2cc(F)c(C)cc2Cl)nc(N)n1 [Example 213, 6-(2-chloro-5-fluoro-4-methylphenyl)-4-N-methylpyrimidine-2,4-diamine]
25 | < 200 nM | COc1ccccc1CCNc1cc(-c2cccc(C)c2C)nc(N)n1 [Example 126, 6-(2,3-dimethylphenyl)-4-N-[2-(2-methoxyphenyl)ethyl]pyrimidine-2,4-diamine]
26 | < 200 nM | Nc1nc(NCCc2ccc(O)cc2)cc(-c2cccc(Cl)c2Cl)n1 [Example 301, 4-(2-{[2-Amino-6-(2,3-dichlorophenyl)pyrimidin-4-yl]amino}ethyl)phenol]
27 | < 200 nM | CNc1cc(-c2ccc(OC)c(C)c2C)nc(N)n1 [Example 259, 6-(4-methoxy-2,3-dimethylphenyl)-4-N-methylpyrimidine-2,4-diamine]
28 | < 200 nM | Cc1cccc(-c2cc(NCCCNC(=O)Nc3cc(Cl)nc(Cl)c3)nc(N)n2)c1C [Example 361, 3-(3-{[2-Amino-6-(2,3-dimethylphenyl)pyrimidin-4-yl]amino}propyl)-1-(2,6-dichloropyridin-4-yl)urea]
